{
  "source": "paper PMC12067858",
  "about": "(Febs Letters, 2025)",
  "target": "T1, NcAA9C (Neurospora crassa, UniProt Q7SHI8)",
  "T1 construct": "gene gh61-3; copper-saturated",
  "T1 sequence (Q7SHI8 17-359)": "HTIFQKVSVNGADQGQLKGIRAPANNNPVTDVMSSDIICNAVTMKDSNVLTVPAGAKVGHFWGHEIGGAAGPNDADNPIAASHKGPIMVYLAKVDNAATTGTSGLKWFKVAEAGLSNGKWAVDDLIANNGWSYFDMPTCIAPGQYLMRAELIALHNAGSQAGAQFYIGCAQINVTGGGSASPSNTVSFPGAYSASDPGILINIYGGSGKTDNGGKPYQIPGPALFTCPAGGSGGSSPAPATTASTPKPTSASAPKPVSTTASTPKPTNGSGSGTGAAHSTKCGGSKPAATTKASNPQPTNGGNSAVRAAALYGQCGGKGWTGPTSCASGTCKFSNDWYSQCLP",
  "experiment": "HPAEC-PAD of cellotriose product",
  "type": "biochemical",
  "conditions": "1 uM enzyme, 100 uM ascorbate, 100 uM H2O2, 50 mM MOPS pH 7.0, 30 C",
  "data": [
    {"smiles": "OC[C@H]1O[C@@H](O[C@H]2[C@H](O)[C@@H](O)[C@H](O[C@H]3[C@H](O)[C@@H](O)[C@H](O[C@H]4[C@H](O)[C@@H](O)[C@H](O[C@H]5[C@H](O)[C@@H](O)C(O)O[C@@H]5CO)O[C@@H]4CO)O[C@@H]3CO)O[C@@H]2CO)[C@H](O)[C@@H](O)[C@@H]1O", "note": "(stereo partly shown) [cellopentaose]", "values": [
      {"measurement": "HPAEC-PAD of cellotriose product", "value": "conversion of small, soluble and easily diffusible cellopentaose by NcAA9C"}
    ]}
  ]
}
